In patent publication US8722849B2, “Polypeptides” (Novo Nordisk A/S, priority 2011, dated 2014):
In brackets after ≈: the same amount, converted by molar mass. Read-outs that look alike come from different tables or passages of the source. Starred links: 1 amine or outer side, 2 acyl side, 3 side chain; linkers in the order of their positions; H or OH if unused. Positions of bridges follow the written chain, without caps; N, C: chain ends. Residues, ends and D or L forms follow the SMILES beside them. *: point of attachment. C20 diacid = O=C(O)CCCCCCCCCCCCCCCCCCC(=O)*; γGlu = O=C(O)[C@H](CCC(=O)[*:2])N[*:1]

Tests used:
[1] = target: T1, human amylin receptor (amylin 3(a) receptor: human calcitonin receptor + RAMP-3) (Homo sapiens, UniProt O60896+P30988); experiment: Assay (II)a functional CRE-luciferase assay, human amylin receptor; format: cell-based
T1 construct: expressed in transfected cells; host or cells: BHK570
T1 sequence (P30988 25-474): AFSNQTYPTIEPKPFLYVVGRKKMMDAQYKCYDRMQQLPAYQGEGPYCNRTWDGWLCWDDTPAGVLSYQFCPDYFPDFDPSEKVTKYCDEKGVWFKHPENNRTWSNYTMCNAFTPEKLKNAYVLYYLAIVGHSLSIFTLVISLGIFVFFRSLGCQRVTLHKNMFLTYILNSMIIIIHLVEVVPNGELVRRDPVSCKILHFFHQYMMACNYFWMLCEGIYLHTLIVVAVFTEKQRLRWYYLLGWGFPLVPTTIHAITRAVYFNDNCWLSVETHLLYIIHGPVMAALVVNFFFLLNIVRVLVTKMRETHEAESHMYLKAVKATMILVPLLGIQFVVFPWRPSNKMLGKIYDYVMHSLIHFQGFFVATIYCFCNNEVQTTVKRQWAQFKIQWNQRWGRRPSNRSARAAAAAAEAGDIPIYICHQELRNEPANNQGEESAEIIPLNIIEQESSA
T1 sequence (O60896 24-148 partner): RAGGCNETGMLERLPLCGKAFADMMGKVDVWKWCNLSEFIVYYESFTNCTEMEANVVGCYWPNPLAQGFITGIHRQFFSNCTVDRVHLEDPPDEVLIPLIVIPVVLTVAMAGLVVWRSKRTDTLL
Description: (§1) 1. Luciferase Assay Outline
(§2) Activation of calcitonin and amylin (coexpression of calcitonin receptor and receptor activity modifying proteins (RAMP)) receptors lead to increased intracellular concentrations of cAMP. Consequently, transcription is activated by promoters containing multiple copies of the cAMP response element (CRE). It is thus possible to measure amylin activity by the use of a CRE luciferase reporter gene introduced into BHK cells also expressing calcitonin or amylin receptors.
(§3) A BHK570 cell line was stably transfected with the human calcitonin receptor and a CRE-responsive luciferase reporter gene. The cell line was further transfected with RAMP-3, using standard methods. This turns the calcitonin receptor into an amylin 3(a) receptor. Methotrexate, Neomycin, and Hygromycin are selection markers for luciferase, the calcitonin receptor, and RAMP-3, respectively.
(§4) To perform activity assays, BHK calcitonin (a) receptor- or amylin 3(a)-receptor/CRE-luc cells were seeded in white 96 well culture plates at a density of about 20.000 cells/well. […] Further, 50 μl/well of standard or sample in assay buffer were added. After 3 hours incubation at 37° C. and 5% CO2, the assay medium with standard or sample were removed and replaced by 100 μl/well PBS. Further, 100 μl/well LucLite™ was added. The plates were sealed and incubated at room temperature for 30 minutes. Finally, luminescence was measured on a TopCounter (Packard) in SPC (single photon counting) mode.

[2] = target: T2, human calcitonin receptor (Homo sapiens, UniProt P30988); experiment: Assay (II)a functional CRE-luciferase assay, human calcitonin receptor; format: cell-based; settings: Table 7; human calcitonin (CTa) receptor
T2 construct: expressed in transfected cells; host or cells: BHK570
T2 sequence (P30988 25-474): T1 sequence (P30988 25-474)
Description: as §1, §2, §3, §4

[3] = Assay (IV) determination of solubility; format: physicochemical
How it was run: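 Polypeptide in water (~500 nmol/ml stock) was mixed 1:1 with 100 mM buffers from pH 3.0 to 8.0 (glycylglycine pH 3.0–5.0; bistrispropane pH 6.0–8.0). After 18 hours at room temperature, samples were centrifuged and the polypeptide remaining in solution was quantified by HPLC.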

[4] = Table 2, BHK amylin 3(a)-receptor/CRE-luc cells
[5] = bistrispropane buffer, pH 6, pH 6.0, read-out: Solubility pH 6.0
[6] = bistrispropane buffer, pH 6.5, pH 6.5, read-out: Solubility pH 6.5
[7] = bistrispropane buffer, pH 7, pH 7.0, 18 hours at room temperature, Table 3, read-out: Solubility pH 7.0
[8] = bistrispropane buffer, pH 7, pH 7.0, read-out: Solubility pH 7.0
[9] = bistrispropane buffer, pH 7.5, pH 7.5, read-out: Solubility pH 7.5
[10] = bistrispropane buffer, pH 8, pH 8.0, read-out: Solubility pH 8.0
[11] = glycylglycine buffer, pH 3, pH 3.0, read-out: Solubility pH 3.0
[12] = glycylglycine buffer, pH 4, pH 4.0, 18 hours at room temperature, Table 2, read-out: Solubility pH 4.0
[13] = glycylglycine buffer, pH 4, pH 4.0, read-out: Solubility pH 4.0
[14] = glycylglycine buffer, pH 5, pH 5.0, read-out: Solubility pH 5.0

EC50 [1, 4]	EC50 [2]	solubility at 18 h [3, 5]	solubility at 18 h [3, 6]	solubility at 18 h [3, 7]	solubility at 18 h [3, 8]	solubility at 18 h [3, 9]	solubility at 18 h [3, 10]	solubility at 18 h [3, 11]	solubility at 18 h [3, 12]	solubility at 18 h [3, 13]	solubility at 18 h [3, 14]	EC50 ([1]; Table 6, human amylin receptor)	SMILES
1.13 nM	1.19 nM	> 200 µM	> 200 µM	> 200 µM	> 200 µM	> 200 µM	> 200 µM	> 200 µM	> 200 µM	> 200 µM	> 200 µM	–	CC[C@H](C)[C@H](NC(=O)[C@@H]1CCCN1C(=O)CNC(=O)[C@H](Cc1ccccc1)NC(=O)[C@H](CC(N)=O)NC(=O)[C@H](CCC(N)=O)NC(=O)[C@H](CO)NC(=O)[C@H](CO)NC(=O)[C@H](Cc1c[nH]cn1)NC(=O)[C@H](CCCNC(=N)N)NC(=O)[C@H](CC(C)C)NC(=O)[C@H](Cc1ccccc1)NC(=O)[C@H](CCC(=O)O)NC(=O)[C@H](C)NC(=O)[C@H](CC(C)C)NC(=O)[C@H](CCCNC(=N)N)NC(=O)[C@H](CCC(N)=O)NC(=O)[C@@H](NC(=O)[C@H](C)NC(=O)[C@@H]1CSSC[C@H](NC(=O)[C@H](CCCNC(=N)N)NC(=O)[C@H](CCC(=O)O)NC(=O)[C@H](CCC(=O)O)NC(=O)CC[C@H](NC(=O)CCCCCCCCCCCCCCCCCCC(=O)O)C(=O)O)C(=O)N[C@@H](CC(N)=O)C(=O)N[C@@H]([C@@H](C)O)C(=O)N[C@@H](C)C(=O)N[C@@H]([C@@H](C)O)C(=O)N1)[C@@H](C)O)C(=O)N[C@@H](CC(C)C)C(=O)N1CCC[C@H]1C(=O)N1CCC[C@H]1C(=O)N[C@H](C(=O)N[C@@H](CC(N)=O)C(=O)N[C@H](C(=O)NCC(=O)N[C@@H](CO)C(=O)N[C@@H](CCC(N)=O)C(=O)N[C@H](C(=O)N1CCC[C@H]1C(N)=O)[C@@H](C)O)C(C)C)[C@@H](C)O [Example 158, N-alpha-[(S)-4-Carboxy-4-(19-carboxynonadecanoylamino)butyryl]-Glu-Glu-[Arg1,Glu14,Arg17,Gln21,Gln35,Pro37]-pramlintide] ({C20 diacid-γGlu}-EERCNTATCATQRLAEFLRHSSQNFGPILPPTNVGSQTP-NH2; disulfide 4-9 (inferred))
0.465 nM	0.547 nM	> 200 µM	> 200 µM	> 200 µM	> 200 µM	> 200 µM	> 200 µM	> 200 µM	> 200 µM	> 200 µM	> 200 µM	–	CC[C@H](C)[C@H](NC(=O)[C@@H]1CCCN1C(=O)CNC(=O)[C@H](Cc1ccccc1)NC(=O)[C@H](CC(N)=O)NC(=O)[C@H](CCC(N)=O)NC(=O)[C@H](CO)NC(=O)[C@H](CO)NC(=O)[C@H](Cc1c[nH]cn1)NC(=O)[C@H](CCCNC(=N)N)NC(=O)[C@H](CC(C)C)NC(=O)[C@H](Cc1ccccc1)NC(=O)[C@H](CCC(=O)O)NC(=O)[C@H](C)NC(=O)[C@H](CC(C)C)NC(=O)[C@H](CCCNC(=N)N)NC(=O)[C@H](CCC(N)=O)NC(=O)[C@@H](NC(=O)[C@H](C)NC(=O)[C@@H]1CSSC[C@H](NC(=O)[C@H](CCCNC(=N)N)NC(=O)[C@H](CCC(=O)O)NC(=O)[C@H](CCC(=O)O)NC(=O)CC[C@H](NC(=O)CCCCCCCCCCCCCCCCCCC(=O)O)C(=O)O)C(=O)N[C@@H](CC(N)=O)C(=O)N[C@@H]([C@@H](C)O)C(=O)N[C@@H](C)C(=O)N[C@@H]([C@@H](C)O)C(=O)N1)[C@@H](C)O)C(=O)N[C@@H](CC(C)C)C(=O)N1CCC[C@H]1C(=O)N1CCC[C@H]1C(=O)N[C@H](C(=O)N[C@@H](CC(N)=O)C(=O)N[C@H](C(=O)NCC(=O)N[C@@H](CO)C(=O)N[C@@H](CC(N)=O)C(=O)N[C@H](C(=O)N1CCC[C@H]1C(N)=O)[C@@H](C)O)C(C)C)[C@@H](C)O [Example 157, N-alpha-[(S)-4-Carboxy-4-(19-carboxynonadecanoylamino)butyryl]-Glu-Glu-[Arg1,Glu14,Arg17,Gln21,Pro37]-pramlintide] ({C20 diacid-γGlu}-EERCNTATCATQRLAEFLRHSSQNFGPILPPTNVGSNTP-NH2; disulfide 4-9 (inferred); C-terminus assumed)
–	0.279 nM	1 µM (≈ 4.5 µg/mL)	1 µM (≈ 4.5 µg/mL)	–	1 µM (≈ 4.5 µg/mL)	1 µM (≈ 4.5 µg/mL)	3 µM (≈ 13.5 µg/mL)	178 µM (≈ 800 µg/mL)	–	93 µM (≈ 418 µg/mL)	2 µM (≈ 8.99 µg/mL)	0.127 nM	CC(C)C[C@H](NC(=O)[C@H](CCCNC(=N)N)NC(=O)[C@H](CCC(N)=O)NC(=O)[C@@H](NC(=O)[C@H](C)NC(=O)[C@@H]1CSSC[C@H](NC(=O)[C@H](Cc2c[nH]cn2)NC(=O)CC[C@H](NC(=O)CCCCCCCCCCCCCCCCCCC(=O)O)C(=O)O)C(=O)N[C@@H](CC(N)=O)C(=O)N[C@@H]([C@@H](C)O)C(=O)N[C@@H](C)C(=O)N[C@@H]([C@@H](C)O)C(=O)N1)[C@@H](C)O)C(=O)N[C@@H](C)C(=O)N[C@@H](CCC(=O)O)C(=O)N[C@@H](Cc1ccccc1)C(=O)N[C@@H](CC(C)C)C(=O)N[C@@H](Cc1c[nH]cn1)C(=O)N[C@@H](CCCNC(=N)N)C(=O)N[C@@H](CO)C(=O)N[C@@H](CO)C(=O)N[C@@H](CC(N)=O)C(=O)N[C@@H](CCC(=O)O)C(=O)N[C@@H](Cc1ccccc1)C(=O)NCC(=O)N[C@@H](C)C(=O)N[C@@H](CCCNC(=N)N)C(=O)N[C@@H](CC(C)C)C(=O)N[C@@H](CO)C(=O)N[C@@H](CO)C(=O)N[C@H](C(=O)N[C@@H](CC(N)=O)C(=O)N[C@H](C(=O)NCC(=O)N[C@@H](CO)C(=O)N[C@@H](CC(N)=O)C(=O)N[C@H](C(=O)N[C@@H](Cc1ccc(O)cc1)C(N)=O)[C@@H](C)O)C(C)C)[C@@H](C)O [Example 8, N-alpha-[(S)-4-Carboxy-4-(19-carboxynonadecanoylamino)butyryl]-[His1,Glu14,His17,Arg18,Glu22,Ala25,Arg26,Ser28,Ser29]-pramlintide] ({C20 diacid-γGlu}-HCNTATCATQRLAEFLHRSSNEFGARLSSTNVGSNTY-NH2; disulfide 2-7 (inferred))
